Marks after values point to notes of the source that are not given here.

What all share (test): Drug protection from pCMBS modification (SCAMP)
Format in all cases: cell-based

Test [1] has as its target T1, α1β3L231Cγ2L GABAA receptors (Homo sapiens, UniProt P14867+P18507+P28472, L256C).
T1 construct: expressed in transfected cells; host or cells: Xenopus oocytes injected with capped mRNA, 1α:1β:5γ
Set-up: key: +: Mutant-function studies are deemed positive when bulky mutations (mostly tryptophans) at the site significantly reduce positive modulation by anesthetics; -: Negative results are indicated by “–“ symbols. As to conditions: results of this study (*); some cells also cite [9]. How it is done:
(§1) Experiments were performed in ND-96 buffer at room temperature (20–22°C). Oocytes were placed in a low-volume (30µl) flow chamber and impaled with borosilicate microelectrodes filled with 3M KCl (resistance 0.5–3 MΩ) and voltage-clamped at −50 mV (model OC-725C; Warner Instruments, Hamden, CT, USA). Superfusate solutions in ND-96 were delivered at 2 ml/min from glass syringe reservoirs via computer-controlled valves (VC-8; Warner Instruments), a micro-manifold (ALA-VM8; ALA Scientific Instruments, Farmingdale, NY, USA), and PTFE tubing. Currents were digitized at 200 Hz on a computer running ClampEx v8.0 software (Molecular Devices, San Jose, CA, USA). Digitized traces were filtered with a 10-Hz low-pass Bessel function, leak corrected and analyzed for peak amplitude off-line using Clampfit v8 software (Molecular Devices).
(§2) Drug protection from pCMBS modification was assessed under pCMBS exposure conditions that produced approximately half of the maximal modification ratio for each mutant receptor, and a least a value of 3. This approach balanced the magnitude of functional modification signals (smaller with less pCMBS exposure) against the challenge of using a reversibly bound ligand to competitively block an irreversible covalent cysteine-modifying reaction. […] Each oocyte was used in a single SCAMP experiment. […] Etomidate was used as a positive control for anesthetic protection in α1M236C and β3M286C mutants and as a negative control in α1S270C, α1A291C, β3L231C, γ2S301C, γ2I242C, and γ2L246C mutants. R-mTFD-MPAB was used as a positive control in α1S270C, α1A291C, β3L231C, and γ2LS301C mutants and as a negative control in α1M236C and β3M286C mutants. For each cysteine mutant and protective drug combination, five oocytes were studied.
(§3) Non-linear least squares fits and statistical analyses were performed in Prism 10.4.0. (GraphPad Software, San Diego, CA, USA). […] Protection (steric inhibition of pCMBS modification) was inferred when anesthetics produced significant reductions in modification ratios relative to control (no anesthetic) values. The statistical significance threshold was p < 0.05.

For test [2], the target named is T2, α1β3γ2L246C GABAA receptors (Homo sapiens, UniProt P14867+P18507+P28472, L285C).
T2 construct: expressed in transfected cells; host or cells: Xenopus oocytes injected with capped mRNAs mixed 1α:1β:5γ
T2 sequence (P14867 28-456, stated change not applied): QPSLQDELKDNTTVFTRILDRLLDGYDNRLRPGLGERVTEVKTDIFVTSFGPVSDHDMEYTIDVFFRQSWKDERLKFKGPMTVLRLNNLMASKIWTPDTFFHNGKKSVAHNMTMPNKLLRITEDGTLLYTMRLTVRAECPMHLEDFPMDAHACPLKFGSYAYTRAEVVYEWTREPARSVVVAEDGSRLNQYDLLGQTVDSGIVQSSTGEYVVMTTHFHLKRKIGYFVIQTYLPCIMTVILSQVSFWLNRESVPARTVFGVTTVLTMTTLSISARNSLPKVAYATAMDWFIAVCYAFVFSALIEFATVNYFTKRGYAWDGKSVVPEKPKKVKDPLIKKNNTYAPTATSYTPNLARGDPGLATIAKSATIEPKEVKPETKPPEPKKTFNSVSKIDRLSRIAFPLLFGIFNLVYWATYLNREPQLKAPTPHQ
T2 sequence (P28472 26-473): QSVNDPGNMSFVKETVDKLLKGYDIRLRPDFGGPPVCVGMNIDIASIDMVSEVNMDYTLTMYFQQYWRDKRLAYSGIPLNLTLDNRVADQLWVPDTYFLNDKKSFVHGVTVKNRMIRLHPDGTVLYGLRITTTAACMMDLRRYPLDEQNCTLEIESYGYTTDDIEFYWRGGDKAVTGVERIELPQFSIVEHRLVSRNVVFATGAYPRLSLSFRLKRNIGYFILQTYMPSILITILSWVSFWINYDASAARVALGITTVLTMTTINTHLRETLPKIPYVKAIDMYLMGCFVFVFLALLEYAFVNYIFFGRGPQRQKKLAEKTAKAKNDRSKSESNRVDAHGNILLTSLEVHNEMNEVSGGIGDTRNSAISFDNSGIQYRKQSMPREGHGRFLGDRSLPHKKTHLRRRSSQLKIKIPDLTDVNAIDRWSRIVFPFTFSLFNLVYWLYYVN
T2 sequence (P18507 40-475 L285C): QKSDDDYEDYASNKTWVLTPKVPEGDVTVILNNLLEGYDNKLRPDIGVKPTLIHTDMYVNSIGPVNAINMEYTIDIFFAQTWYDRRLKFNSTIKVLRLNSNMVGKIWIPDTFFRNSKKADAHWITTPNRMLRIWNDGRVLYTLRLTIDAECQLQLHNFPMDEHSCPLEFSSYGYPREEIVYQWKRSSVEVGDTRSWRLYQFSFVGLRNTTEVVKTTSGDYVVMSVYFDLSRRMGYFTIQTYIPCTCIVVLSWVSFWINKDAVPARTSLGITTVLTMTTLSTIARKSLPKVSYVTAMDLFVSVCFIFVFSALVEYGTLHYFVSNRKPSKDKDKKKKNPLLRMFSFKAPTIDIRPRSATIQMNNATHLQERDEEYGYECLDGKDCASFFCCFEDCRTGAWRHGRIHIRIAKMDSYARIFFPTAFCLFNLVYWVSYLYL
Details: key: +: Mutant-function studies are deemed positive when bulky mutations (mostly tryptophans) at the site significantly reduce positive modulation by anesthetics; -: Negative results are indicated by “–“ symbols. As to conditions: results of this study (*); etomidate cell also cites [9]. How it is done:
as §1, §2, §3

The target of test [3] is T3, α1β3M286Cγ2L GABAA receptors (Homo sapiens, UniProt P14867+P18507+P28472, M311C).
T3 construct: expressed in transfected cells; host or cells: Xenopus oocytes injected with capped mRNA, 1α:1β:5γ
T3 sequence (P14867 28-456): as the sequence (P14867 28-456, stated change not applied) above
T3 sequence (P28472 26-473 M311C): as the sequence (P28472 26-473) above, with M286C counted along it
T3 sequence (P18507 40-475): as the sequence (P18507 40-475 L285C) above, with C246L counted along it
Details: key: +: SCAMP is Substituted Cysteine Modification and Protection and is positive when adding anesthetic to cysteine modifier significantly reduces persistent post-exposure effects due to covalent modification; -: Negative results are indicated by “–“ symbols. As to conditions: results of this study (*); etomidate cell also cites [16]. On the procedure: as §1, §2, §3

For test [4], the target named is T2, α1β3γ2L246C GABAA receptors. Set-up: key: +: SCAMP is Substituted Cysteine Modification and Protection and is positive when adding anesthetic to cysteine modifier significantly reduces persistent post-exposure effects due to covalent modification; -: Negative results are indicated by “–“ symbols. As to conditions: results of this study (*); etomidate cell also cites [9]. How it is done:
as §1, §2, §3

Test [5] deals with T4, α1S270Cβ3γ2L GABAA receptors (Homo sapiens, UniProt P14867+P18507+P28472, S297C).
T4 construct: expressed in transfected cells; host or cells: Xenopus oocytes injected with capped mRNA, 1α:1β:5γ
T4 sequence (P14867 28-456 S297C): as the sequence (P14867 28-456, stated change not applied) above, with S270C counted along it
T4 sequence (P28472 26-473): as the sequence (P28472 26-473) above
T4 sequence (P18507 40-475): as the sequence (P18507 40-475 L285C) above, with C246L counted along it
Details: key: +: SCAMP is Substituted Cysteine Modification and Protection and is positive when adding anesthetic to cysteine modifier significantly reduces persistent post-exposure effects due to covalent modification; -: Negative results are indicated by “–“ symbols. The note with it: results of this study (*). On the procedure:
as §1, §2, §3

T1 sequence (P14867 28-456): as the sequence (P14867 28-456, stated change not applied) above
T1 sequence (P28472 26-473 L256C): as the sequence (P28472 26-473) above, with L231C counted along it
T1 sequence (P18507 40-475): as the sequence (P18507 40-475 L285C) above, with C246L counted along it

For `CCOC(=O)c1cncn1[C@H](C)c1ccccc1` [etomidate, R-etomidate], the “SCAMP result, β3– (M1) L231” value in test [1] is “-^[9], *”. Moreover, the “SCAMP result, γ2– (M1) L246” value in test [2] is “-^[9], *”. In addition, the “SCAMP result, β3+ (M2, M3) M286” value in test [3] was “+^[16], *”.

With `CC(C)c1cc(C2(C(F)(F)F)N=N2)cc(C(C)C)c1CO` [pTFD-di-iPr-BnOH], the “SCAMP result, γ2– (M1) L246” value in test [4] was “+*”. On to `C=CCC1(c2cccc(C3(C(F)(F)F)N=N3)c2)C(=O)NC(=O)N(C)C1=O` (centres unmarked) [R-mTFD-MPAB, R-5-allyl-1-methyl-5-(m-trifluoromethyl-diazirynylphenyl) barbituric acid], for which the “SCAMP result, α1+ (M2, M3) S270” value in test [5] is on record as “+*”.

Source of the values: PMC12591484 (PLOS One, 2025).
